Measurements reported in PubChem BioAssay AID602217 (Sanford-Burnham Center for Chemical Genomics, 2012).
Active and inactive are the calls of the source.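 How the source made its calls: active means IC50 at or below a set limit; inactive means the rest.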

System: HL-1 cardiomyocytes, 2-deoxyglucose injury, ATPLite luminescence, 2 h
Test: protection of HL-1 cardiomyocytes from 2-deoxyglucose injury, dose response, cell-based, ATPLite luminescence (AID 602217);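 further: cells kept in glucose-free DMEM during the 2-deoxyglucose injury; potency of protection where actives preserve ATP signal against 2-deoxyglucose stress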

Compound: COc1ccc(-c2nn(-c3ccccc3)cc2C(=O)Nc2nccs2)cc1
- IC50: 53.5 µM (inactive)

Compound: CCn1c(O)c(/C=N/N=C/c2ccccc2)c2ccc(C3=NNC(=O)CC3)cc21
- IC50: 18.1 µM

Compound: COc1cccc(Nc2nc(-c3sc(NC(=O)c4ccco4)nc3C)cs2)c1
- IC50: 26.4 µM (inactive)

Compound: COc1cc(/C=C(\C#N)c2nc3ccc(C)cc3[nH]2)c([N+](=O)[O-])cc1OC
- IC50: > 79 µM (inactive)

Compound: CN(C)S(=O)(=O)c1ccc2[nH]cc(/C=C/c3nc4ccccc4c(=O)n3-c3ccccc3)c2c1
- IC50: 5 µM

Compound: CC(OC(=O)c1cc(-c2cccnc2)nc2ccccc12)C(=O)Nc1ccc2ccccc2c1 (centres undefined)
- IC50: > 79 µM (inactive)

Compound: Cn1c(=O)c2[nH]c(NN=Cc3cccc(Br)c3)nc2n(C)c1=O
- IC50: 17.9 µM

Compound: COc1cc(C(=O)NCC(=O)N/N=C/c2ccc(-c3cccc([N+](=O)[O-])c3)o2)cc(OC)c1OC
- IC50: > 79 µM (inactive)

Compound: CCOc1ccc(-n2cc(-c3ccccc3)c3c(N4CCOCC4)ncnc32)cc1
- IC50: 7.65 µM

Compound: CCOC(=O)c1c2c3c(cccc3n(C)c1=O)C(=O)c1ccccc1-2
- IC50: > 79 µM (inactive)

Compound: COC(=O)c1ccc(N)c(N=CC2=C(O)CC(C)(C)CC2=O)c1
- IC50: > 79 µM (inactive)

Compound: COc1cc(-c2cc(NC(C)=O)c3ncc(-c4ccc(C(C)=O)cc4)n3c2)cc(OC)c1OC
- IC50: > 79 µM (inactive)

Compound: COc1ccc(CCNC(=O)C(=O)NCC2CCCN2S(=O)(=O)c2ccccc2)cc1OC (centres undefined)
- IC50: 45.9 µM (inactive)

Compound: c1ccc(-c2nc(-n3ccnc3)nc(-n3ccnc3)n2)cc1
- IC50: 38 µM (inactive)

Compound: COc1ccc(OC)c(/C=N/NC(=O)c2cc3c(OC)c(OC)ccc3[nH]2)c1
- IC50: > 79 µM (inactive)

Compound: Cc1cccc(NC(=O)c2oc3ccc(S(=O)(=O)N4CCOCC4)cc3c2C)c1C
- IC50: 30.5 µM (inactive)

Compound: COc1ccc(-c2csc(NC(=O)CCCc3nc4ccccc4c(=O)[nH]3)n2)cc1OC
- IC50: > 79 µM (inactive)

Compound: COc1cccc(CN(C)C(=O)C(Cc2ccccc2)NC(=O)c2ccccc2)c1OC (centres undefined)
- IC50: > 79 µM (inactive)

Compound: Nc1c(C(=O)N/N=C/c2cccnc2)oc2nc(-c3ccccc3)cc(-c3ccco3)c12
- IC50: > 79 µM (inactive)

Compound: Cc1ccccc1N(C(=O)c1snc(C(N)=O)c1N)C(C(=O)NCc1ccccc1)c1ccc(O)cc1 (centres undefined)
- IC50: > 79 µM (inactive)

Compound: COc1ccc(-c2cc(C(=O)N(C)Cc3nc4ccccc4c(=O)[nH]3)c3ccccc3n2)cc1OC
- IC50: 21.9 µM (inactive)

Compound: COc1ccc(-n2c(/C=C/c3ccc(O)c(OC)c3)nc3ccccc3c2=O)cc1
- IC50: 21.3 µM (inactive)

Compound: COc1cc(NC(=O)c2ccco2)c(OC)cc1NC(=O)c1cc(OC)c(OC)c(OC)c1
- IC50: 18.1 µM

Compound: CC(C)OCCCNC(=O)CCC(=O)NNc1nc2ccccc2c2nc(-c3ccccc3)nn12
- IC50: > 79 µM (inactive)
